Test results: patent US20250230193A1, “CYCLIC COMPOUND HAVING SELECTIVE KRAS INHIBITORY EFFECT ON HRAS AND NRAS” (CHUGAI SEIYAKU KABUSHIKI KAISHA, priority 2022, published 2025)
*1 amine or outer side, *2 acyl side, *3 side chain or, on linkers, in order; H or OH if unused. Where a SMILES comes first, the peptide text is derived from it. Bridges are numbered along the chain shown (N, C = ends). [ ]: non-standard residue; d: D form. The star is where a group is joined. hPhe(3,5-F2-4-CF3) = N[C@@H](CCc1cc(F)c(C(F)(F)F)c(F)c1)C(=O)O; hPhe(3-Cl-4-CF3) = N[C@@H](CCc1ccc(C(F)(F)F)c(Cl)c1)C(=O)O; X42 = COCCCN([C@@H](Cc1ccc(C(F)(F)F)cc1)C(=O)[*:2])[*:1]; NPrPhe(4-CF3) = CCCN[C@@H](Cc1ccc(C(F)(F)F)cc1)C(=O)O; Morpholine(3S-CO) = O=C(O)[C@@H]1COCCN1; NMeGly(cPent) = CN[C@H](C(=O)O)C1CCCC1; NMeD = CN[C@@H](CC(=O)O)C(=O)O; NMeL = CN[C@@H](CC(C)C)C(=O)O; Iva = CC[C@](C)(N)C(=O)O; Morpholide = C1CN(*)CCO1; Ac5c = NC1(C(=O)O)CCCC1; Aze = O=C(O)[C@@H]1CCN1; Sar = CNCC(=O)O

Legend:
[1] = biological target: GDP-bound NRAS wild-type protein (Homo sapiens, UniProt P01111); experiment: Binding to NRAS by surface plasmon resonance (SPR), Single Cycle Kinetics; conditions: for NRAS/KRAS (ratio of KD value for NRAS to KD value for KRAS) / NRAS/KRAS (ratio of KD value with respect to NRAS to KD value with respect to KRAS): GDP-bound NRAS wild-type vs GDP-bound KRAS wild-type
Sequence of GDP-bound NRAS wild-type protein (P01111 whole entry): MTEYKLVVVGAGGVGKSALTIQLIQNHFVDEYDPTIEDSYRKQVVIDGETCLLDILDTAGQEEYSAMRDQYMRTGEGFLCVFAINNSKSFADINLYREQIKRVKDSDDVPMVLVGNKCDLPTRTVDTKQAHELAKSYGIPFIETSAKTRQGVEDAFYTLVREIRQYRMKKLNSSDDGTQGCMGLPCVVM

[2] = biological target: GDP-bound HRAS wild-type protein (Homo sapiens, UniProt P01112); experiment: Binding to HRAS by surface plasmon resonance (SPR), Single Cycle Kinetics; conditions: for HRAS/KRAS (ratio of KD value for HRAS to KD value for KRAS) / HRAS/KRAS (ratio of KD value with respect to HRAS to KD value with respect to KRAS): GDP-bound HRAS wild-type vs GDP-bound KRAS wild-type
Sequence of GDP-bound HRAS wild-type protein (P01112 whole entry): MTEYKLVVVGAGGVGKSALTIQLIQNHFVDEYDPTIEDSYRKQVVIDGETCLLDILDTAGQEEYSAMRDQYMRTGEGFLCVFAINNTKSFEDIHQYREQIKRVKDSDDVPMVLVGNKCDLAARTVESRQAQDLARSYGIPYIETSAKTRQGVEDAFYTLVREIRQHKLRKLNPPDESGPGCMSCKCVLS

CCC[C@H]1C(=O)N[C@@H]([C@@H](C)CC)C(=O)N(C)CC(=O)N(C)[C@H]2C/C=C\CCN(C2=O)[C@@H](Cc2ccc(C)cc2)C(=O)N(C)CC(=O)N[C@@H](CCc2ccc(C(F)(F)F)c(Cl)c2)C(=O)N2C[C@@H](C)C[C@H]2C(=O)NC2(CC(C)(C)C2)C(=O)N(C)[C@@H](C2CCCC2)C(=O)N(C)[C@H](C(=O)N(C)CC)CC(=O)N1C [PP1893]
NRAS/KRAS (ratio of KD value for NRAS to KD value for KRAS) ([1]; KD ratio, SPR): A (a compound having 10 or more and less than 20 is denoted as A)
HRAS/KRAS (ratio of KD value for HRAS to KD value for KRAS) ([2]; KD ratio, SPR): B (a compound having 3 or more and less than 10 is denoted as B)

CCO[C@@H]1C[C@H]2C(=O)NC3(CCC3)C(=O)N(C)[C@@H](C3CCCC3)C(=O)N(C)[C@H](C(=O)N(C)C)CC(=O)N(C)[C@@H](Cc3cccc(F)c3)C(=O)N[C@@H]([C@@H](C)CC)C(=O)N(C)CC(=O)N(C)[C@H]3C/C=C\CCN(C3=O)[C@@H](Cc3ccc(C(F)(F)F)cc3)C(=O)N(C)CC(=O)N[C@@H](CCc3cc(F)c(C(F)(F)F)c(F)c3)C(=O)N2C1 [PP1126]
NRAS/KRAS (ratio of KD value with respect to NRAS to KD value with respect to KRAS) ([1]; KD ratio, SPR): A (a compound having 10 or more and less than 20 is denoted as A)
HRAS/KRAS (ratio of KD value with respect to HRAS to KD value with respect to KRAS) ([2]; KD ratio, SPR): A (a compound having 10 or more and less than 20 is denoted as A)

CCO[C@@H]1C[C@H]2C(=O)NC3(CCCC3)C(=O)N(C)[C@@H](C3CCCC3)C(=O)N(C)[C@H](C(=O)N(C)C)CC(=O)N(C)[C@@H](CC(C)C)C(=O)N[C@@H]([C@@H](C)CC)C(=O)N(C)CC(=O)N(C)[C@H]3CCCCCN(C3=O)[C@@H](Cc3ccc(C(F)(F)F)cc3)C(=O)N(C)CC(=O)N[C@@H](CCc3cc(F)c(C(F)(F)F)c(F)c3)C(=O)N2C1 [PP0468]
NRAS/KRAS (ratio of KD value with respect to GDP-bound NRAS wild-type protein to KD value with respect to KRAS) ([1]; SPR): B (a compound having 3 or more and less than 10 is denoted as B)
HRAS/KRAS (ratio of KD value with respect to GDP-bound HRAS wild-type protein to KD value with respect to KRAS) ([2]; SPR): B (a compound having 3 or more and less than 10 is denoted as B)

CCO[C@@H]1C[C@H]2C(=O)NC3(CCC3)C(=O)N(C)[C@@H](C3CCCC3)C(=O)N(C)[C@H](C(=O)N(C)C)CC(=O)N(C)[C@@H](CCOC)C(=O)N[C@@H]([C@@H](C)CC)C(=O)N(C)CC(=O)N(C)[C@H]3CCCCCN(C3=O)[C@@H](Cc3ccc(C(F)(F)F)cc3)C(=O)N(C)CC(=O)N[C@@H](CCc3cc(F)c(C(F)(F)F)c(F)c3)C(=O)N2C1 [PP0675]
NRAS/KRAS (ratio of KD value with respect to GDP-bound NRAS wild-type protein to KD value with respect to KRAS) ([1]; SPR): B (a compound having 3 or more and less than 10 is denoted as B)
HRAS/KRAS (ratio of KD value with respect to GDP-bound HRAS wild-type protein to KD value with respect to KRAS) ([2]; SPR): B (a compound having 3 or more and less than 10 is denoted as B)

CCCN1C(=O)CN(C)C(=O)[C@@H]2CCN2C(=O)[C@H]([C@@H](C)CC)NC(=O)[C@H](CC(C)C)N(C)C(=O)C[C@@H](C(=O)N2CCOCC2)N(C)C(=O)[C@H](C2CCCC2)N(C)C(=O)C2(CCCC2)NC(=O)[C@@H]2COCCN2C(=O)[C@H](CCc2ccc(C(F)(F)F)c(Cl)c2)NC(=O)CN(C)C(=O)[C@@H]1Cc1ccc(C(F)(F)F)cc1 [PP0313] ([NMeL]I[Aze][Sar][NPrPhe(4-CF3)][Sar][hPhe(3-Cl-4-CF3)][Morpholine(3S-CO)][Ac5c][NMeGly(cPent)][NMeD]-Morpholide; lactam N-11)
NRAS/KRAS (ratio of KD for GDP-bound NRAS wild-type to KD for KRAS) ([1]; SPR): B (a compound having 3 or more and less than 10 is denoted as B)
HRAS/KRAS (ratio of KD for GDP-bound HRAS wild-type to KD for KRAS) ([2]; SPR): C (A compound having a KD ratio of 0.1 or more and less than 3 is denoted as C)

CCCC[C@H]1C(=O)N[C@@H]([C@@H](C)CC)C(=O)N(C)CC(=O)N(C)[C@H]2C/C=C\CCN(C2=O)[C@@H](Cc2ccc(C(F)(F)F)cc2)C(=O)N(C)CC(=O)N[C@@H](CCc2cc(F)c(C(F)(F)F)c(F)c2)C(=O)N2CC(F)(F)C[C@H]2C(=O)NC2(CC(C)(C)C2)C(=O)N(C)[C@@H](C2CCCC2)C(=O)N(C)[C@H](C(=O)N(C)C)CC(=O)N1C [PP1714]
NRAS/KRAS (ratio of KD value for NRAS to KD value for KRAS) ([1]; KD ratio, SPR): A (a compound having 10 or more and less than 20 is denoted as A)
HRAS/KRAS (ratio of KD value for HRAS to KD value for KRAS) ([2]; KD ratio, SPR): A (a compound having 10 or more and less than 20 is denoted as A)

CC[C@H](C)[C@@H]1NC(=O)[C@H](CC(C)C)N(C)C(=O)C[C@@H](C(=O)N2CCOCC2)N(C)C(=O)[C@H](C2CCCC2)N(C)C(=O)C2(CCCC2)NC(=O)[C@@H]2CCCN2C(=O)[C@H](CCc2ccc(C(F)(F)F)c(Cl)c2)NC(=O)CN(C)C(=O)[C@H](Cc2ccc(C(F)(F)F)cc2)N(CCCOC)C(=O)CN(C)C(=O)CN(C)C1=O [PP0133] ([NMeL]I[Sar][Sar][X42][Sar][hPhe(3-Cl-4-CF3)]P[Ac5c][NMeGly(cPent)][NMeD]-Morpholide; lactam N-11)
NRAS/KRAS (ratio of KD for GDP-bound NRAS wild-type to KD for KRAS) ([1]; SPR): B (a compound having 3 or more and less than 10 is denoted as B)
HRAS/KRAS (ratio of KD for GDP-bound HRAS wild-type to KD for KRAS) ([2]; SPR): C (A compound having a KD ratio of 0.1 or more and less than 3 is denoted as C)

CCC[C@H]1C(=O)N[C@@H]([C@@H](C)CC)C(=O)N(C2CC2)CC(=O)N(C)[C@H]2C/C=C\CCN(C2=O)[C@@H](Cc2ccc(C(F)F)cc2)C(=O)N(C)CC(=O)N[C@@H](CCc2cc(F)c(C(F)(F)F)c(F)c2)C(=O)N2C[C@H](OCC)C[C@H]2C(=O)NC2(CC(C)(C)C2)C(=O)N(C)[C@@H](C(CC)CC)C(=O)N(C)[C@H](C(=O)N(C)C)CC(=O)N1C [PP2527]
NRAS/KRAS (ratio of KD value with respect to GDP-bound NRAS wild-type protein to KD value with respect to KRAS) ([1]; class symbols): AA (a compound having 20 or more is denoted as AA)
HRAS/KRAS (ratio of KD value with respect to GDP-bound HRAS wild-type protein to KD value with respect to KRAS) ([2]; class symbols): A (a compound having 10 or more and less than 20 is denoted as A)

CCCN1C(=O)CN(C)C(=O)CN(C)C(=O)[C@H]([C@@H](C)CC)NC(=O)[C@H](CC(C)C)N(C)C(=O)C[C@@H](C(=O)N2CCOCC2)N(C)C(=O)[C@H](C2CCCC2)N(C)C(=O)[C@](C)(CC)NC(=O)[C@@H]2CCCN2C(=O)[C@H](CCc2cc(F)c(C(F)(F)F)c(F)c2)NC(=O)CN(C)C(=O)[C@@H]1Cc1ccc(C(F)(F)F)cc1 [PP0754] ([NMeL]I[Sar][Sar][NPrPhe(4-CF3)][Sar][hPhe(3,5-F2-4-CF3)]P[Iva][NMeGly(cPent)][NMeD]-Morpholide; lactam N-11)
NRAS/KRAS (ratio of KD value with respect to GDP-bound NRAS wild-type protein to KD value with respect to KRAS) ([1]; SPR): B (a compound having 3 or more and less than 10 is denoted as B)
HRAS/KRAS (ratio of KD value with respect to GDP-bound HRAS wild-type protein to KD value with respect to KRAS) ([2]; SPR): C (A compound having a KD ratio of 0.1 or more and less than 3 is denoted as C)

CCOC[C@H]1C(=O)N[C@@H]([C@@H](C)OCC)C(=O)N2CCC[C@H]2C(=O)N(C)[C@H]2C/C=C\CCN(C2=O)[C@@H](Cc2ccc(C)cc2)C(=O)N(C)CC(=O)N[C@@H](CCc2ccc(C(F)(F)F)c(OC)c2)C(=O)N2C[C@@H](C)C[C@H]2C(=O)NC2(CC(C)(C)C2)C(=O)N(C)[C@@H](C2CCCC2)C(=O)N(C)[C@H](C(=O)N(C)CC)CC(=O)N1C [PP2433]
NRAS/KRAS (ratio of KD value with respect to NRAS to KD value with respect to KRAS) ([1]; SPR): AA (a compound having 20 or more is denoted as AA)
HRAS/KRAS (ratio of KD value with respect to HRAS to KD value with respect to KRAS) ([2]; SPR): A (a compound having 10 or more and less than 20 is denoted as A)
